PubChem BioAssay AID179 (DTP/NCI, 2004)
Calls of active or inactive are those of the source.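 How the source made its calls: active means compounds giving half or more protection of infected cells from virus-caused growth loss, again on retest; inactive means the rest.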

System: CEM cells HIV-1 protection, formazan growth assay
Assay: NCI AIDS Antiviral Assay
Conditions: for IC50: measured here: growth of uninfected CEM cells
Procedure, shortened: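 Protection of CEM cells against HIV-1 was scored from cell growth (soluble formazan) across five concentrations, with parallel uninfected cells. Lack of protection may reflect toxicity.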

In the case of Cc1c2n(c3ccccc13)CC1CON(C)C21 (stereo not drawn), the EC50 is reported as over 1100 µM and the IC50 is reported as 355 µM.
O=Nc1c(-c2ccccc2)nnc(-c2ccccc2)c1N=O showed an EC50 of over 9.33 µM and an IC50 of over 9.33 µM.
Compound CCn1ccc(=O)nc1 has an EC50 of over 200 µM and an IC50 of over 200 µM.
Compound CNc1ccc(N)cc1C(=O)N1CCC[C@H]1CO has an EC50 of over 200 µM and an IC50 of over 200 µM.
For CCCCOC(=O)C(=O)C(CCC(=O)c1ccc(C)cc1)C(=O)C=C(C)C (stereo not drawn), the EC50 was over 69.2 µM and the IC50 was over 69.2 µM.
For CCOC(=O)NC(Nc1ncccn1)(C(=O)OCC)C(F)(F)F (stereo not drawn), the EC50 was over 200 µM and the IC50 was over 200 µM.
In the case of O=[N+]([O-])OC1CCCC(O[N+](=O)[O-])c2c1n([O-])c1ccccc1[n+]2=O (stereo not drawn), the EC50 is reported as over 51.3 µM and the IC50 is reported as 1.41 µM.
With O=[N+]([O-])c1cc(I)cc(/C=N/NS(=O)(=O)c2ccc(Cl)cc2)c1O the EC50 was over 372 µM and the IC50 was 66.1 µM.
For CNC(=O)Nn1c(SC)nc2ccccc21, the EC50 was over 200 µM and the IC50 was over 200 µM.
For Nc1nc(N)c(CCc2ccccc2)c(N)n1, the outcome was “inactive”.
With COC(=O)C1(C(=O)OC)CC(=O)c2c(OC(=O)c3cccc(OC)c3C#N)ccc(OC(=O)c3cccc(OC)c3C#N)c2C1 the EC50 was over 200 µM and the IC50 was 29.5 µM.
Compound Cc1cccc(NC(=S)N=Nc2c(O)[nH]c3ccccc23)c1 has an EC50 of over 200 µM and an IC50 of 117 µM.
Cc1cccc2c(=O)c3c(O)cc(O)cc3n(C)c12 gave an EC50 of 145 µM and an IC50 of over 200 µM.
CCOC(=O)c1c(NC(=O)OC)c(C#N)c2n1CCCCC2 gave an EC50 of over 200 µM and an IC50 of over 200 µM.
For Cc1ccc(S(=O)(=O)Oc2coc(CO)cc2=O)cc1, the EC50 was over 200 µM and the IC50 was 12.3 µM.
For CCOC(=O)C1=CC(C(=O)OCC)C2C=CC1N2C(=O)OC (stereo not drawn), the outcome was “inactive”.
With O=c1/c(=C/c2ccc(Cl)cc2Cl)sc2nc3ccccc3n12 the outcome was “inactive”.
For C=CC/C=C/C/C=C/CCCCCCCc1cccc(O)c1C(=O)O, the EC50 was over 105 µM and the IC50 was 56.2 µM.
O=C1[C@H](Cl)[C@H]2c3cc4ccccc4nc3Oc3ccccc3N12 showed an EC50 of over 22.4 µM and an IC50 of over 22.4 µM.
For CC1=C2C3CCCC(C3=O)[C@H](C)C2CC1=O (stereo partly drawn), the outcome was “inactive”.
Work on CCOC(=O)C1(C/C=C\CBr)CCCC1=O (stereo not drawn) yielded an EC50 of over 200 µM and an IC50 of 33.9 µM.
With O=C(NC(=S)Nc1ccc(Cl)c(Cl)c1)c1cccc([N+](=O)[O-])c1 the EC50 was over 200 µM and the IC50 was 17 µM.
For CCOC(=O)C(CS)NC(=O)CCCCCCCC(=O)NC(CS)C(=O)OCC (stereo not drawn), the EC50 was over 200 µM and the IC50 was 102 µM.
C=C1C2CCC3C(CCC4C35CCC[C@]4(C)CN3CCO[C@H]35)(C2)[C@@H]1O (stereo partly drawn) was tested, and the outcome was “inactive”.
CC(=O)OC1CC2C(=O)CC1(C)C2(C)C (stereo not drawn) was tested, and the EC50 was over 200 µM and the IC50 was over 200 µM.
CC(C)(C)c1cc(C(O)(C(F)(F)F)C(F)(F)F)c(S)c(C(O)(C(F)(F)F)C(F)(F)F)c1 was tested, and the EC50 was over 200 µM and the IC50 was 3.47 µM.
For CC(CCc1ccc2c(c1)c(=N)c1ccc(N)cc1n2O)CC(C)(C)C (stereo not drawn), the outcome was “inactive”.
In the case of Cc1cc(-n2nnnc2-c2ccc([N+](=O)[O-])cc2)no1, the EC50 is reported as over 5.01 µM and the IC50 is reported as 4.37 µM.
CC1(C)O[C@@H](C[C@]2(C#N)C[C@H](CCl)OC(C)(C)O2)C[C@@H](C#N)O1 was tested, and the outcome was “inactive” and the IC50 was over 200 µM.
Work on COC(=O)CNS(=O)(=O)c1ccc(-c2c3nc(c(-c4ccc(S(=O)(=O)NCC(=O)OC)cc4)c4ccc([nH]4)c(-c4ccc(S(=O)(=O)NCC(=O)OC)cc4)c4nc(c(-c5ccc(S(=O)(=O)NCC(=O)OC)cc5)c5ccc2[nH]5)C=C4)C=C3)cc1 yielded an EC50 of over 100 µM and an IC50 of over 100 µM.
With CCOc1ccc2nc3nc(=O)[nH]c(C)c3c(NCCCN(CC)CC)c2c1 the EC50 was over 200 µM and the IC50 was over 200 µM.
Clc1ccc(-c2c(C3=NCCCN3)nnn2-c2ccccc2)cc1 gave an EC50 of over 389 µM and an IC50 of over 389 µM.
O=S1(=O)CC2C1C1(c3ccccc3)OC2(c2ccccc2)c2ccccc21 (stereo not drawn) showed an EC50 of over 200 µM and an IC50 of 20 µM.
Work on Cc1nc(Nc2ccccc2C)c2ccsc2n1 yielded an EC50 of over 263 µM and an IC50 of over 263 µM.
COC1=CC2=CCC3C(CC[C@@]4(C)C3CC[C@@H]4C(C)=O)[C@@]2(C)CC1 (stereo partly drawn) showed an EC50 of over 200 µM and an IC50 of 74.1 µM.
CCOC(=O)C1=CC(C)(C(=O)OCC)Nc2c(nc(N)[nH]c2=O)N1 (stereo not drawn) showed an EC50 of 138 µM and an IC50 of over 200 µM.
For Cc1noc(NS(=O)(=O)c2ccc(N=c3c4ccccc4n(Cc4ccccc4)c4ccccc34)cc2)c1C, the outcome was “inactive”.
For CC(C)=CCN1c2ccccc2[C@@]2(CC=C(C)C)CCN(C)[C@@H]12, the EC50 was over 200 µM and the IC50 was 33.1 µM.
Compound OC1CCC(O)[C@H]2[C@@H]1[C@@H]1S[C@H]2c2ccccc21 (stereo partly drawn) has an EC50 of over 200 µM and an IC50 of over 200 µM.
In the case of O=c1cc(N=P(c2ccccc2)(c2ccccc2)c2ccccc2)n(-c2ccccc2)c(=O)n1-c1ccccc1, the outcome is reported as “inactive”.
For CC12CCC([C@H](N3CCOCC3)/C1=N\OCCN1CCCC1)C2(C)C (stereo partly drawn), the EC50 was over 251 µM and the IC50 was 138 µM.
Cn1c2ccccc2c2cc(-c3ccccc3)c3c(c21)C(=O)c1ccccc1C3=O showed an EC50 of over 13.5 µM and an IC50 of over 13.5 µM.
COc1cc(/C=C2\C(=O)N(C(=O)Cc3ccccc3)N=C2C)ccc1O showed an EC50 of over 53.7 µM and an IC50 of over 53.7 µM.
